Experimental data taken from US11407740B2 (priority 2018, dated 2022).
Converted amounts (≈) assume the structure as drawn.

System: E. coli
Assay: Bacterial susceptibility testing, MIC by broth microdilution (CLSI)
Details: Escherichia coli, read-out: E. coli MIC, broth microdilution, 35° C., 18-24 h

Row | Compound | MIC
1 | N#CC1CCN(Cc2ccc(C#Cc3ccc([C@@H](CO)Cc4nc[nH]c(=O)c4O)cc3)cc2)C1 (some centres unmarked) [Compound 33] | < 1 µg/mL
2 | N#C[C@H]1CCN(Cc2ccc(C#Cc3ccc(C(CO)Cc4nc[nH]c(=O)c4O)cc3)cc2)C1 (some centres unmarked) [Compound 34] | < 1 µg/mL
3 | N#C[C@@H]1CCN(Cc2ccc(C#Cc3ccc(C(CO)Cc4nc[nH]c(=O)c4O)cc3)cc2)C1 (some centres unmarked) [Compound 36] | < 1 µg/mL
4 | O=c1[nH]cnc(CC(CO)c2ccc(C#Cc3ccc(CNC4C5COCC54)cc3)cc2)c1O (centres unmarked) [Compound 37] | < 1 µg/mL
5 | O=c1[nH]cnc(CC(CO)c2ccc(C#Cc3ccc(CNC4CCS(=O)(=O)C4)cc3)cc2)c1O (centres unmarked) [Compound 38] | < 1 µg/mL
6 | O=c1[nH]cnc(CC(CO)c2ccc(C#Cc3ccc(CN4CC5(CCCO5)C4)cc3)cc2)c1O (centres unmarked) [Compound 42] | < 1 µg/mL
7 | O=c1[nH]cnc(CC(CO)c2ccc(C#Cc3ccc(CN4CC5(COC5)C4)cc3)cc2)c1O (centres unmarked) [Compound 47] | 1 to 8 µg/mL (≈ 2.19 to 17.5 µM)
8 | O=c1[nH]cnc(CC(CO)c2ccc(C#Cc3ccc(CNC4COC4)cc3)cc2)c1O (centres unmarked) [Compound 49] | < 1 µg/mL
9 | CCOC(=O)C(Cc1nc[nH]c(=O)c1O)c1ccc(C#Cc2ccc(CNC3COC3)cc2)cc1 (centres unmarked) [Compound 50] | 1 to 8 µg/mL (≈ 2.11 to 16.9 µM)
10 | O=c1[nH]cnc(CC(CO)c2ccc(C#Cc3ccc(CN4CC(N5CCOCC5)C4)cc3)cc2)c1O (centres unmarked) [Compound 51] | 1 to 8 µg/mL (≈ 2 to 16 µM)
11 | O=c1[nH]cnc(CC(CO)c2ccc(C#Cc3ccc(CNCC4CCOC4)cc3)cc2)c1O (centres unmarked) [Compound 52] | 1 to 8 µg/mL (≈ 2.18 to 17.4 µM)
12 | O=c1[nH]cnc(CC(CO)c2ccc(C#Cc3ccc(CNC4CCOCC4)cc3)cc2)c1O (centres unmarked) [Compound 53] | 1 to 8 µg/mL (≈ 2.18 to 17.4 µM)
13 | N=S1(=O)CCC(NCc2ccc(C#Cc3ccc(C(CO)Cc4nc[nH]c(=O)c4O)cc3)cc2)C1 (centres unmarked) [Compound 56] | 1 to 8 µg/mL (≈ 2.03 to 16.2 µM)
14 | COCCNCc1ccc(C#Cc2ccc(C(CO)Cc3nc[nH]c(=O)c3O)cc2)cc1 (centres unmarked) [Compound 57] | 1 to 8 µg/mL (≈ 2.31 to 18.5 µM)
15 | O=c1[nH]cnc(CC(CO)c2ccc(C#Cc3ccc(CNCC4CC4)cc3)cc2)c1O (centres unmarked) [Compound 58] | 1 to 8 µg/mL (≈ 2.33 to 18.6 µM)
16 | CN1CCN(C(=O)c2ccc(C#Cc3ccc(C(CO)Cc4nc[nH]c(=O)c4O)cc3)cc2)CC1 (centres unmarked) [Compound 59] | 1 to 8 µg/mL (≈ 2.12 to 16.9 µM)
17 | O=c1[nH]cnc(CC(CO)c2ccc(C#Cc3ccc(CNC4CC[S+]([O-])C4)cc3)cc2)c1O (centres unmarked) [Compound 60] | 1 to 8 µg/mL (≈ 2.09 to 16.8 µM)
18 | CNCc1ccc(C#Cc2ccc(C(CO)Cc3nc[nH]c(=O)c3O)cc2)cc1 (centres unmarked) [Compound 61] | 1 to 8 µg/mL (≈ 2.57 to 20.5 µM)
19 | NCc1ccc(C#Cc2ccc(C(CO)Cc3nc[nH]c(=O)c3O)cc2)cc1 (centres unmarked) [Compound 63] | 1 to 8 µg/mL (≈ 2.66 to 21.3 µM)
20 | NC1(Cc2ccc(C#Cc3ccc(C(CO)Cc4nc[nH]c(=O)c4O)cc3)cc2)CCOCC1 (centres unmarked) [Compound 64] | 1 to 8 µg/mL (≈ 2.18 to 17.4 µM)
21 | NC(Cc1nc[nH]c(=O)c1O)c1ccc(C#Cc2ccc(CN3CCOCC3)cc2)cc1 (centres unmarked) [Compound 65] | < 1 µg/mL
22 | COC1CN(CC(Cc2nc[nH]c(=O)c2O)c2ccc(C#Cc3ccc(CN4CCOCC4)cc3)cc2)C1 (centres unmarked) [Compound 71] | < 1 µg/mL
23 | CC(F)CNCC(Cc1nc[nH]c(=O)c1O)c1ccc(C#Cc2ccc(CN3CCOCC3)cc2)cc1 (centres unmarked) [Compound 74] | < 1 µg/mL
24 | O=c1[nH]cnc(CC(CN[C@H]2C[C@@H](F)C2)c2ccc(C#Cc3ccc(CN4CCOCC4)cc3)cc2)c1O (some centres unmarked) [Compound 75] | < 1 µg/mL
25 | O=c1[nH]cnc(CC(CN[C@H]2C[C@H](F)C2)c2ccc(C#Cc3ccc(CN4CCOCC4)cc3)cc2)c1O (some centres unmarked) [Compound 78] | 1 to 8 µg/mL (≈ 1.94 to 15.5 µM)
26 | C[C@@H](CF)NCC(Cc1nc[nH]c(=O)c1O)c1ccc(C#Cc2ccc(CN3CC(C#N)C3)cc2)cc1 (some centres unmarked) [Compound 81] | < 1 µg/mL
27 | C[C@H](CF)NCC(Cc1nc[nH]c(=O)c1O)c1ccc(C#Cc2ccc(CN3CC(C#N)C3)cc2)cc1 (some centres unmarked) [Compound 83] | < 1 µg/mL
28 | CC(CC#N)NCC(Cc1nc[nH]c(=O)c1O)c1ccc(C#Cc2ccc(CN3CCOCC3)cc2)cc1 (centres unmarked) [Compound 97] | < 1 µg/mL

Row | Compound | MIC
29 | COC1CN(Cc2ccc(C#Cc3ccc(C(CNCC(C)F)Cc4nc[nH]c(=O)c4O)cc3)cc2)C1 (centres unmarked) [Compound 101] | < 1 µg/mL
30 | N#CC1CN(CC(Cc2nc[nH]c(=O)c2O)c2ccc(C#Cc3ccc(CN4CCOCC4)cc3)cc2)C1 (centres unmarked) [Compound 102] | < 1 µg/mL
31 | O=c1[nH]cnc(CC(CNCCCF)c2ccc(C#Cc3ccc(CN4CCOCC4)cc3)cc2)c1O (centres unmarked) [Compound 105] | < 1 µg/mL
32 | O=c1[nH]cnc(CC(CNC2CC(F)(F)C2)c2ccc(C#Cc3ccc(CN4CCOCC4)cc3)cc2)c1O (centres unmarked) [Compound 112] | < 1 µg/mL
33 | O=c1[nH]cnc(CC(CNCC(F)F)c2ccc(C#Cc3ccc(CN4CCOCC4)cc3)cc2)c1O (centres unmarked) [Compound 115] | < 1 µg/mL
34 | O=c1[nH]cnc(CC(CNC2CC2)c2ccc(C#Cc3ccc(CN4CCOCC4)cc3)cc2)c1O (centres unmarked) [Compound 118] | < 1 µg/mL
35 | COC1CN(Cc2ccc(C#Cc3ccc(C(Cc4nc[nH]c(=O)c4O)CN4C(=O)OC[C@@H]4C)cc3)cc2)C1 (some centres unmarked) [Compound 121] | 1 to 8 µg/mL (≈ 1.89 to 15.1 µM)
36 | CS(=O)(=O)CCNCC(Cc1nc[nH]c(=O)c1O)c1ccc(C#Cc2ccc(CN3CCOCC3)cc2)cc1 (centres unmarked) [Compound 128] | 1 to 8 µg/mL (≈ 1.82 to 14.5 µM)
37 | O=c1[nH]cnc(CC(CNCCO)c2ccc(C#Cc3ccc(CN4CCOCC4)cc3)cc2)c1O (centres unmarked) [Compound 129] | 1 to 8 µg/mL (≈ 2.05 to 16.4 µM)
38 | N#CCCNCC(Cc1nc[nH]c(=O)c1O)c1ccc(C#Cc2ccc(CN3CCOCC3)cc2)cc1 (centres unmarked) [Compound 130] | 1 to 8 µg/mL (≈ 2.01 to 16.1 µM)
39 | CC(NCC(F)F)C(Cc1nc[nH]c(=O)c1O)c1ccc(C#Cc2ccc(CN3CCOCC3)cc2)cc1 (centres unmarked) [Compound 131] | 1 to 8 µg/mL (≈ 1.91 to 15.3 µM)
40 | N#CCCNCC(Cc1nc[nH]c(=O)c1O)c1ccc(C#Cc2ccc(CN3CC(CC#N)C3)cc2)cc1 (centres unmarked) [Compound 134] | 8 to 32 µg/mL (≈ 15.8 to 63.2 µM)
41 | CC(F)CNCC(Cc1nc[nH]c(=O)c1O)c1ccc(C#Cc2ccc(CCN3CCOCC3)cc2)cc1 (centres unmarked) [Compound 138] | 1 to 8 µg/mL (≈ 1.93 to 15.4 µM)
42 | O=c1[nH]cnc(CC(NCCCF)c2ccc(C#Cc3ccc(CN4CCOCC4)cc3)cc2)c1O (centres unmarked) [Compound 139] | < 1 µg/mL
43 | CC(CF)NC(Cc1nc[nH]c(=O)c1O)c1ccc(C#Cc2ccc(CN3CCOCC3)cc2)cc1 (centres unmarked) [Compound 141] | < 1 µg/mL
44 | N=S1(=O)CCC(NCc2ccc(C#Cc3ccc(C(CO)Cc4nc[nH]c(=O)c4O)cc3)cc2)CC1 (centres unmarked) [Compound 149] | 1 to 8 µg/mL (≈ 1.97 to 15.8 µM)
45 | O=C(CO)N1CCN(Cc2ccc(C#Cc3ccc(C(CO)Cc4nc[nH]c(=O)c4O)cc3)cc2)CC1 (centres unmarked) [Compound 152] | < 1 µg/mL
46 | O=C(C1CC1)N1CC[C@@H](NCc2ccc(C#Cc3ccc(C(CO)Cc4nc[nH]c(=O)c4O)cc3)cc2)C1 (some centres unmarked) [Compound 153] | < 1 µg/mL
47 | O=C(CO)N1CCC(NCc2ccc(C#Cc3ccc(C(CO)Cc4nc[nH]c(=O)c4O)cc3)cc2)CC1 (centres unmarked) [Compound 157] | 1 to 8 µg/mL (≈ 1.94 to 15.5 µM)
48 | COCCNCC(Cc1nc[nH]c(=O)c1O)c1ccc(C#Cc2ccc(CN3CCOCC3)cc2)cc1 (centres unmarked) [Compound 164] | 1 to 8 µg/mL (≈ 1.99 to 15.9 µM)
49 | O=c1[nH]cnc(CC(NCCCCl)c2ccc(C#Cc3ccc(CN4CCOCC4)cc3)cc2)c1O (centres unmarked) [Compound 172] | < 1 µg/mL
50 | COC1CCN(Cc2ccc(C#Cc3ccc(C(N)Cc4nc[nH]c(=O)c4O)cc3)cc2)CC1 (centres unmarked) [Compound 174] | < 1 µg/mL
51 | COC1CN(Cc2ccc(C#Cc3ccc(C(Cc4nc[nH]c(=O)c4O)CN4CC(OC)C4)cc3)cc2)C1 (centres unmarked) [Compound 175] | 1 to 8 µg/mL (≈ 1.94 to 15.5 µM)
52 | O=c1[nH]cnc(CC(CN2CCC2)c2ccc(C#Cc3ccc(CN4CCOCC4)cc3)cc2)c1O (centres unmarked) [Compound 177] | < 1 µg/mL
53 | O=c1[nH]cnc(CC(CNCc2ccn[nH]2)c2ccc(C#Cc3ccc(CN4CCOCC4)cc3)cc2)c1O (centres unmarked) [Compound 184] | 1 to 8 µg/mL (≈ 1.91 to 15.2 µM)
54 | COCC(Cc1nc[nH]c(=O)c1O)c1ccc(C#Cc2ccc(CN3CCOCC3)cc2)cc1 (centres unmarked) [Compound 190] | < 1 µg/mL
55 | O=C(NCC(F)F)C(Cc1nc[nH]c(=O)c1O)N1Cc2cc(C#Cc3ccc(CN4CCOCC4)cc3)cn2C1=O (centres unmarked) [Compound 191] | < 1 µg/mL

Same assay, conditions: broth microdilution, 35° C., 18-24 h

Row | Compound | E. coli MIC
56 | O=c1[nH]cnc(CC(CN[C@H]2C[C@@H](F)C2)c2ccc(C#Cc3ccc(CN4CCOCC4)cc3)cc2)c1O (some centres unmarked) [Compound 76] | A (A: ≤1 μg/mL)
57 | O=c1[nH]cnc(CC(CN[C@H]2C[C@@H](F)C2)c2ccc(C#Cc3ccc(CN4CCOCC4)cc3)cc2)c1O (some centres unmarked) [Compound 77] | B (B: >1 μg/mL to ≤8.0 μg/mL)
58 | O=c1[nH]cnc(CC(CN[C@H]2C[C@H](F)C2)c2ccc(C#Cc3ccc(CN4CCOCC4)cc3)cc2)c1O (some centres unmarked) [Compound 79] | A (A: ≤1 μg/mL)
59 | O=c1[nH]cnc(CC(CN[C@H]2C[C@H](F)C2)c2ccc(C#Cc3ccc(CN4CCOCC4)cc3)cc2)c1O (some centres unmarked) [Compound 80] | A (A: ≤1 μg/mL)
60 | O=c1[nH]cnc(CC(CNCCCF)c2ccc(C#Cc3ccc(CN4CCOCC4)cc3)cc2)c1O (centres unmarked) [Compound 106] | B (B: >1 μg/mL to ≤8.0 μg/mL)
61 | O=c1[nH]cnc(CC(CNCCCF)c2ccc(C#Cc3ccc(CN4CCOCC4)cc3)cc2)c1O (centres unmarked) [Compound 107] | A (A: ≤1 μg/mL)
62 | O=c1[nH]cnc(CC(CNC2CC(F)(F)C2)c2ccc(C#Cc3ccc(CN4CCOCC4)cc3)cc2)c1O (centres unmarked) [Compound 113] | B (B: >1 μg/mL to ≤8.0 μg/mL)
63 | O=c1[nH]cnc(CC(CNC2CC(F)(F)C2)c2ccc(C#Cc3ccc(CN4CCOCC4)cc3)cc2)c1O (centres unmarked) [Compound 114] | B (B: >1 μg/mL to ≤8.0 μg/mL)
64 | O=c1[nH]cnc(CC(CNC2CC2)c2ccc(C#Cc3ccc(CN4CCOCC4)cc3)cc2)c1O (centres unmarked) [Compound 119] | A (A: ≤1 μg/mL)
65 | O=c1[nH]cnc(CC(CNC2CC2)c2ccc(C#Cc3ccc(CN4CCOCC4)cc3)cc2)c1O (centres unmarked) [Compound 120] | B (B: >1 μg/mL to ≤8.0 μg/mL)
66 | COC1CN(Cc2ccc(C#Cc3ccc(C(Cc4nc[nH]c(=O)c4O)CN4C(=O)OC[C@@H]4C)cc3)cc2)C1 (some centres unmarked) [Compound 122] | A (A: ≤1 μg/mL)
67 | COC1CN(Cc2ccc(C#Cc3ccc(C(Cc4nc[nH]c(=O)c4O)CN4CC(F)C4)cc3)cc2)C1 (centres unmarked) [Compound 159] | A (A: ≤1 μg/mL)
68 | COC1CN(Cc2ccc(C#Cc3ccc(C(Cc4nc[nH]c(=O)c4O)CN4CC(F)C4)cc3)cc2)C1 (centres unmarked) [Compound 160] | A (A: ≤1 μg/mL)
69 | COC1CN(Cc2ccc(C#Cc3ccc(C(Cc4nc[nH]c(=O)c4O)CN4CC(OC)C4)cc3)cc2)C1 (centres unmarked) [Compound 176] | A (A: ≤1 μg/mL)
70 | COC1CN(Cc2ccc(C#Cc3ccc(C(Cc4nc[nH]c(=O)c4O)CN4CC(F)C4)cc3)cc2)C1 (centres unmarked) [Compound 180] | C (C: >8.0 μg/mL to ≤32 μg/mL)
71 | COC1CN(Cc2ccc(C#Cc3ccc(C(Cc4nc[nH]c(=O)c4O)CN4CC(F)C4)cc3)cc2)C1 (centres unmarked) [Compound 181] | B (B: >1 μg/mL to ≤8.0 μg/mL)
